“And” between values parts separate entries of the source, which are not always exact repeats. Equal entries are not always repeated. Inconclusive results and toxic doses are left out. Rule as the data show it: active = T/C of 150% or more; inactive = T/C below 125%. Square brackets hold non-standard residues; d marks the D form. Peptide text beside a SMILES is read from it. * marks the point of attachment. ξ: configuration not given here. ξY = NC(Cc1ccc(O)cc1)C(=O)O; Cbz = O=C(OCc1ccccc1)*
Test system: L1210 leukemia ip in BDF1 mice, survival T/C
Experiment: NCI In Vivo Anticancer Drug Screen. Data for tumor model L1210 Leukemia (intraperitoneal) in B6D2F1 (BDF1) mice
Settings: endpoint: mean survival time, higher = longer survival
How it was run: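 Ratio derived from survival: compound-dosed mice over vehicle-dosed mice, all bearing a transplantable tumor.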

[1] = dose: 50.0 mg/kg/injection, schedule: Q01DX009 (ip), vehicle: saline with Tween-80
[2] = dose: 100.0 mg/kg/injection, schedule: Q01DX009 (ip), vehicle: saline with Tween-80
[3] = dose: 100.0 mg/kg/injection, schedule: Q04DX003 (ip), vehicle: saline with Tween-80
[4] = dose: 200.0 mg/kg/injection, schedule: Q01DX009 (ip), vehicle: saline with Tween-80
[5] = dose: 200.0 mg/kg/injection, schedule: Q04DX003 (ip), vehicle: saline with Tween-80
[6] = dose: 400.0 mg/kg/injection, schedule: Q04DX003 (ip), vehicle: saline with Tween-80
[7] = dose: 50.0 mg/kg/injection, schedule: Q01DX001 (ip), vehicle: saline
[8] = dose: 100.0 mg/kg/injection, schedule: Q01DX009 (ip), vehicle: Klucel (hydroxypropylcellulose) (HPC)
[9] = dose: 200.0 mg/kg/injection, schedule: Q01DX009 (ip), vehicle: Klucel (hydroxypropylcellulose) (HPC)
[10] = dose: 400.0 mg/kg/injection, schedule: Q01DX009 (ip), vehicle: Klucel (hydroxypropylcellulose) (HPC)
[11] = dose: 100.0 mg/kg/injection, schedule: Q01DX001 (ip), vehicle: other
[12] = dose: 200.0 mg/kg/injection, schedule: Q01DX001 (ip), vehicle: other
[13] = dose: 400.0 mg/kg/injection, schedule: Q01DX001 (ip), vehicle: other
[14] = dose: 100.0 mg/kg/injection, schedule: Q01DX009 (ip), vehicle: saline

Measured: T/C

O=[N+]([O-])c1ccc2c(c1)c(-c1cc(Cl)cc(Cl)c1)nc1ccccc12
inactive: [1] 104 % of control | [2] 103 % of control | [3] 93 % of control | [4] 106 % of control | [5] 90 % of control | [6] 93 % of control

Oc1ccccc1C=NCCCN1CCOCC1.Oc1ccccc1C=NCCCN1CCOCC1.[Co]
inactive: dose: 12.5 mg/kg/injection, schedule: Q01DX001 (ip), vehicle: saline 98 % of control | dose: 25.0 mg/kg/injection, schedule: Q01DX001 (ip), vehicle: saline 100 % of control | [7] 98 % of control

O=C1CSC(c2ccccc2)N1 (stereo not drawn)
inactive: dose: 44.0 mg/kg/injection, schedule: Q04DX003 (ip), vehicle: Klucel (hydroxypropylcellulose) (HPC) 94 % of control and 103 % of control | dose: 67.0 mg/kg/injection, schedule: Q04DX003 (ip), vehicle: Klucel (hydroxypropylcellulose) (HPC) 98 % of control and 100 % of control | [8] 98 % of control | dose: 100.0 mg/kg/injection, schedule: Q04DX003 (ip), vehicle: Klucel (hydroxypropylcellulose) (HPC) 98 % of control and 100 % of control | dose: 150.0 mg/kg/injection, schedule: Q04DX003 (ip), vehicle: Klucel (hydroxypropylcellulose) (HPC) 98 % of control and 109 % of control | [9] 98 % of control | dose: 200.0 mg/kg/injection, schedule: Q04DX003 (ip), vehicle: Klucel (hydroxypropylcellulose) (HPC) 100 % of control | [10] 95 % of control | dose: 400.0 mg/kg/injection, schedule: Q04DX003 (ip), vehicle: Klucel (hydroxypropylcellulose) (HPC) 105 % of control

O=C(Nc1ccc(C2=NCCN2)cc1)c1ccc([N+](=O)[O-])c(C(=O)Nc2ccc(C3=NCCN3)cc2)c1
inactive: dose: 10.0 mg/kg/injection, schedule: Q01DX Z (ip), vehicle: carboxymethylcellulose (CMC) 108 % of control | dose: 19.0 mg/kg/injection, schedule: Q01DX Z (ip), vehicle: carboxymethylcellulose (CMC) 108 % of control

COc1ccccc1NS(=O)(=O)c1ccc(Cl)cc1
inactive: [8] 103 % of control | [9] 112 % of control | [10] 103 % of control

CC1Nc2ccccc2N2C(=O)CCC12 (stereo not drawn)
inactive: dose: 50.0 mg/kg/injection, schedule: Q01DX009 (ip), vehicle: Klucel (hydroxypropylcellulose) (HPC) 106 % of control | [8] 103 % of control | [9] 106 % of control

O=C(CCCC(=O)N/N=C/c1ccc(OCc2ccccc2)cc1)N/N=C\c1ccc(OCc2ccccc2)cc1
inactive: dose: 50.0 mg/kg/injection, schedule: Q01DX001 (ip), vehicle: other 102 % of control | [11] 93 % of control | [12] 93 % of control | [13] 91 % of control

CCC(C(O)c1ccc(F)cc1)C(O)(C(F)(F)F)C(F)(F)F (stereo not drawn)
inactive: dose: 50.0 mg/kg/injection, schedule: Q01DX009 (ip), vehicle: other 93 % of control | dose: 100.0 mg/kg/injection, schedule: Q01DX009 (ip), vehicle: other 102 % of control | [3] 101 % of control | dose: 200.0 mg/kg/injection, schedule: Q01DX009 (ip), vehicle: other 98 % of control | [5] 100 % of control | [6] 90 % of control

CC(C)CC(NC(=O)OC(C)(C)C)C(=O)O (stereo not drawn)
inactive: [11] 104 % of control | [12] 93 % of control | [13] 98 % of control

CCOc1ccc2cc(Br)ccc2c1
inactive: dose: 50.0 mg/kg/injection, schedule: Q01DX001 (ip), vehicle: Klucel (hydroxypropylcellulose) (HPC) 101 % of control | dose: 100.0 mg/kg/injection, schedule: Q01DX001 (ip), vehicle: Klucel (hydroxypropylcellulose) (HPC) 106 % of control | dose: 200.0 mg/kg/injection, schedule: Q01DX001 (ip), vehicle: Klucel (hydroxypropylcellulose) (HPC) 97 % of control

Nc1ncnn1C(=S)NCc1ccccc1
inactive: [14] 100 % of control | dose: 100.0 mg/kg/injection, schedule: Q04DX003 (ip), vehicle: saline 89 % of control | dose: 200.0 mg/kg/injection, schedule: Q04DX003 (ip), vehicle: saline 90 % of control | dose: 400.0 mg/kg/injection, schedule: Q04DX003 (ip), vehicle: saline 88 % of control

CNC(=O)Nc1ccc(Nc2ccccc2)cc1
inactive: dose: 100.0 mg/kg/injection, schedule: Q04DX002 (ip), vehicle: Klucel (hydroxypropylcellulose) (HPC) 105 % of control | dose: 200.0 mg/kg/injection, schedule: Q04DX002 (ip), vehicle: Klucel (hydroxypropylcellulose) (HPC) 97 % of control | dose: 400.0 mg/kg/injection, schedule: Q04DX002 (ip), vehicle: Klucel (hydroxypropylcellulose) (HPC) 91 % of control

CCOC(=O)C1(c2cc(NS(=O)(=O)N(C)C)c(Cl)cc2NS(=O)(=O)N(C)C)CCCC1=O (stereo not drawn)
inactive: [7] 104 % of control | dose: 100.0 mg/kg/injection, schedule: Q01DX001 (ip), vehicle: saline 102 % of control | dose: 200.0 mg/kg/injection, schedule: Q01DX001 (ip), vehicle: saline 91 % of control

CCOC(=O)C(Cc1ccc(O)cc1)NC(=O)CNC(=O)OCc1ccccc1 (stereo not drawn) (Cbz-Gly-[ξY]-OEt)
inactive: [3] 106 % of control | [5] 95 % of control | [6] 96 % of control

CCN(CC)CCSC(=O)c1ccccc1
inactive: dose: 50.0 mg/kg/injection, schedule: Q01DX009 (ip), vehicle: saline 94 % of control | [14] 100 % of control | dose: 200.0 mg/kg/injection, schedule: Q01DX009 (ip), vehicle: saline 100 % of control

CCCNC(=S)NNC(=O)c1ccncc1
inactive: dose: 100.0 mg/kg/injection, schedule: Q04DX002 (ip), vehicle: saline with Tween-80 100 % of control | dose: 200.0 mg/kg/injection, schedule: Q04DX002 (ip), vehicle: saline with Tween-80 118 % of control

COC(O)C(O)C(O)C(O)CO (stereo not drawn) (tested in a mixture with another compound)
inactive: dose: 100.0 mg/kg/injection, schedule: Q01DX001 (ip), vehicle: saline with Tween-80 90 % of control | dose: 200.0 mg/kg/injection, schedule: Q01DX001 (ip), vehicle: saline with Tween-80 97 % of control | dose: 400.0 mg/kg/injection, schedule: Q01DX001 (ip), vehicle: saline with Tween-80 93 % of control

NC(=O)NN=C1CCC(CC2CCCCC2)CC1 (stereo not drawn)
inactive: dose: 25.0 mg/kg/injection, schedule: Q04DX003 (ip), vehicle: saline with Tween-80 102 % of control | dose: 50.0 mg/kg/injection, schedule: Q04DX003 (ip), vehicle: saline with Tween-80 102 % of control

O=C(NC1CCCC1O)c1ccccc1 (stereo not drawn)
inactive: [1] 95 % of control | [2] 95 % of control | [4] 98 % of control
